Values after ≈ are worked out from the molar mass of the structure shown. Like-named read-outs stand apart in the source and are kept apart here.
How the values were obtained:
B16 melanoma BL6 = assay: Antitumor effect in mice subcutaneously transplanted with B16 melanoma BL6; format: in vivo, Mice (C57BL/6); conditions: MTD/MED
Description: (§1) Mice (C57BL/6, Charles River Japan) were subcutaneously transplanted with B16 melanoma BL6 (Cancer Res., Poste, G., Fidler, I. J. et al., 1980, 40:1636; Bioorg. Med. Chem. Lett., Takeda, Y. et al., 2003, 13:185-190), or M5076 (obtained from Japanese Foundation for Cancer Research), which is a histiocytoma expressing P-gp. Four days after the transplantation in the case of B16 melanoma BL6, or 8 to 10 days after the transplantation in the case of M5076, each test compound suspended in a 0.5% aqueous solution of carboxymethylcellulose sodium, or dissolved in EtOH:Tween 80:5% glucose=5:5:90 (v/v %) was orally (po) or intravenously (iv) administered to the mice. Ten days after the administration in the case of B16 melanoma BL6, or 8 to 10 days after the administration in the case of M5076, the mice were dissected, and tumor weights were measured. The antitumor effect was calculated in accordance with the following equation.
(§2) [1−(Average tumor weight of compound administration group/average tumor weight of solvent administration group)]×100
(§3) An antitumor effect of 58% or more was considered effective (Int. J. Cancer, 1989, 43:637-44), and the maximum tolerance dose (MTD, maximum dose not causing death, mg/kg) and minimum effective dose (MED, mg/kg) showing effectiveness were obtained, respectively. The therapeutic index was calculated in accordance with the equation: MTD/MED.
(§4) ND means that the test was not performed. The effective dose range means the range of from MED to MTD.

[1] = test system: HCT116 (human colon cancer cell line); assay: Anti-cell activity (MTT) against human tumor cell line HCT116; format: cell-based; conditions: HCT-116, 72 h, HCT116, cultured three days, read-out: HCT116 (GI50 value, ng/mL)
Method: (§5) Three types of human tumor cell lines (all of the cells were obtained from American Type Culture Collection) were seeded on 96-well microplates as follows.
(§6) NCI-H460 (human lung cancer cell line): 5.0×10^2 cells/190 μL/well HCT-15 (P glycoprotein (P-gp) expressing human colon cancer cell line, J. Natl. Cancer Inst., 2001, 93:1234-1245): 1.0×10^3 cells/190 μL/well HCT116 (human colon cancer cell line): 1.0×10^3 cells/190 μL/well On the next day, each test compound was dissolved in 100% dimethyl sulfoxide (DMSO) at a concentration of 10 mg/mL. This solution was diluted with 0.01% Cremophor EL-PBS(−) (Cremophor EL: Sigma Chemical Co., St. Louis, Mo., USA, PBS: Invitrogen Corp., Carlsbad, Calif., USA), and 10 μL of the diluted solution was added to each well (final concentration: 100 to 0.000381 ng/mL). The cells were cultured for three days, and then […] of a 5 mg/mL solution of 3-(4,5-dimethylthiazol-2-yl)-2,5-diphenyl-2H-tetrazolium bromide (MTT, Sigma Chemical Co.) was added to each well. The cells were further cultured for 4 hours, and then the medium was removed by centrifugation. By adding 150 μL of DMSO to each well, the produced formazan product was dissolved. The absorbance of the solution was measured at 540 nm. The drug concentration suppressing cell proliferation of the drug addition group to 50% of the cell proliferation of the drug free group (GI50 value, ng/mL) was calculated, and used as an index of anti-cell activity.

[2] = test system: M5076 (histiocytoma expressing P-gp); assay: Antitumor effect in mice subcutaneously transplanted with M5076; format: in vivo, Mice (C57BL/6); conditions: for Therapeutic index: MTD/MED; for Effective dose range: range from MED to MTD, antitumor effect of 58% or more considered effective
Description: as §1, §2, §3, §4

[3] = Solubility in first and second solution for disintegration test (Japanese Pharmacopoeia); format: physicochemical; conditions: thermodynamic from solid, 12 hours or longer
Method: Solubility of each compound was determined in the first solution for disintegration test according to Japanese Pharmacopoeia (henceforth referred to as the first solution, solution obtained by adding 7 mL of hydrochloric acid and water to 2.00 g of sodium chloride to dissolve sodium chloride and fill up the solution to 1000 mL, pH 1.2) and the second solution for disintegration test according to Japanese Pharmacopoeia (henceforth referred to as the second solution, solution obtained by adding 118 mL of 0.2 mol/L solution of sodium hydroxide to 6.80 g of potassium dihydrogenphosphate, adding water to the mixture to dissolve potassium dihydrogenphosphate and filling up the solution to 1000 mL, pH 6.8).
Each test compound was dissolved in 100% dimethyl sulfoxide (DMSO) at a concentration of 10 mM, and 50 μL of the solution was lyophilized. The lyophilized test compound was added with 250 μL of the first solution or second solution, and the mixture was stored at room temperature for 12 hours or longer under light shielding, and filtered (0.7 μm). The filtrate was taken in a volume of 90 μL, and added with 50% DMSO (90 μL) to obtain a two-fold diluted solubility sample. The two-fold dilution solubility sample was taken in a volume of 20 μL, and added with 50% DMSO (180 μL) to obtain a […] diluted solubility sample. Solubility of each test sample was determined by quantifying the test compound in the resulting diluted solubility test samples using high-performance liquid chromatography.

[4] = test system: HCT-15 (P glycoprotein (P-gp) expressing human colon cancer cell line); assay: Anti-cell activity (MTT) against human tumor cell line HCT-15; format: cell-based; conditions: 72 h, HCT-15 (P-gp expressing), cultured three days, read-out: HCT-15 (GI50 value, ng/mL)
Method: as §5, §6

[5] = test system: NCI-H460 (human lung cancer cell line); assay: Anti-cell activity (MTT) against human tumor cell line NCI-H460; format: cell-based; conditions: 72 h, NCI-H460, cultured three days, read-out: NCI-H460 (GI50 value, ng/mL)
Method: as §5, §6

[6] = aqueous buffer, second solution for disintegration test, pH 6.8, room temperature, read-out: Solubility (μg/mL) pH 6.8
[7] = simulated gastric fluid, first solution for disintegration test, pH 1.2, room temperature, read-out: Solubility (μg/mL) pH 1.2

SMILES	Therapeutic index (B16 melanoma BL6; B16 Melanoma BL6, iv)	Therapeutic index (B16 melanoma BL6; B16 Melanoma BL6, po)	GI50 [1] [ng/mL]	Therapeutic index ([2]; M5076, iv)	Effective dose range ([2]; M5076, iv) [mg/kg]	Therapeutic index ([2]; M5076, po)	Effective dose range ([2]; M5076, po) [mg/kg]	solubility [3, 6] [µg/mL]	solubility [3, 7] [µg/mL]	GI50 [4] [ng/mL]	GI50 [5] [ng/mL]
CC(=O)O[C@@]12CO[C@@H]1CC[C@@]1(C)[C@@H]3O[C@H](CN4CCC4)O[C@@H]3C3=C(C)[C@@H](OC(=O)[C@H](O)[C@@H](NC(=O)OC(C)(C)C)c4ncccc4F)C[C@@](O)([C@@H](OC(=O)c4ccccc4)[C@@H]12)C3(C)C [Example 2, (1S,2S,3R,4S,5R,8R,9S,10R,13S)-4-(Acetoxy)-9,10-[(1S)-2-(azetidino)ethylidenedioxy]-2-(benzoyloxy)-5,20-epoxy-1-hydroxytax-11-en-13-yl (2R,3S)-3-(tert-butoxycarbonylamino)-3-(3-fluoro-2-pyridyl)-2-hydroxypropionate]	2.9	2.9	0.669 (≈ 0.000748 µM)	1.0	14.7	2.0	13.7 to 28	170 (≈ 190 µM)	1100 (≈ 1230 µM)	2.31 (≈ 0.00258 µM)	0.606 (≈ 0.000678 µM)
COC1CN(C[C@@H]2O[C@@H]3C4=C(C)[C@@H](OC(=O)[C@H](O)[C@@H](NC(=O)OC(C)(C)C)c5ncccc5F)C[C@@](O)([C@@H](OC(=O)c5ccccc5)[C@H]5[C@@](C)(CC[C@H]6OC[C@]65OC(C)=O)[C@@H]3O2)C4(C)C)C1 [Example 8, (1S,2S,3R,4S,5R,8R,9S,10R,13S)-4-(Acetoxy)-2-(benzoyloxy)-5,20-epoxy-1-hydroxy-9,10-[(1S)-2-(3-methoxyazetidino)ethylidenedioxy]tax-11-en-13-yl (2R,3S)-3-(tert-butoxycarbonylamino)-3-(3-fluoro-2-pyridyl)-2-hydroxypropionate]		2.9	0.155 (≈ 0.000168 µM)			1.4	21.0 to 30.0	10 (≈ 10.8 µM)	600 (≈ 649 µM)	0.236 (≈ 0.000255 µM)	0.128 (≈ 0.000139 µM)
